Patent US20080200345A1, “HIGH THROUGHPUT METHOD TO IDENTIFY LIGANDS FOR CELL ATTACHMENT” (priority 2003, published 2008)

System: MC3T3-E1 cells
Assay: ECM screen: adhesion of MC3T3-E1 osteoblast cells to immobilized adhesion ligands (nuclei count)
Format: cell-based
Conditions: best factors approach
Source text: A statistical design was developed with special consideration of the surface chemistry requirements. In particular, in this experiment the scenario shown in FIG. 6 was used, wherein the overall adhesion ligand density was kept constant from well to well and only the adhesion ligand composition was allowed to change. In other words, the concentration of a single adhesion ligand could be different from well to well, but each well has the same amount of adhesion ligand immobilized overall. This scenario is further described above. An example of such design is shown in the spreadsheet in FIG. 7. The top row in FIG. 7 lists the 10 cell adhesion ligands used in this particular screen. The first column is a list of the experimental points that translate into a well in the 96-well plate, e.g., 52 wells in this case. The numbers in the spreadsheet are the actual volumes (in µL) of factor that is added to a particular well. In this particular design, factors get added to the wells at three volumes, e.g., 5 µL, 25 µL, or 50. mu.L. The total well volume in this case is 50 µL. Thus, for wells where one factor is added at 50 µL, the final well composition will comprise a single adhesion ligand covalently immobilized on the well surface. Accordingly, if 25 µL of a factor is added to a well, a second factor is added at 25 µL also, and the final well composition will comprise a mixture of two different cell adhesion ligands covalently immobilized on the well surface. When 5 µL of a factor are added, nine other factors are added at 5 µL each, as well, thus resulting in wells that comprise a mixture of all 10 cell adhesion ligands on the well surface. These experimental points containing all 10 adhesion ligands are called “mid points” and are an integral part of the statistical design in this example.
With reference now to FIG. 8, a 96-well plate layout is shown, which was translated from the particular statistical design shown in FIG. 7. In particular, the 96-well plate includes the well compositions indicated in FIG. 7, e.g., cell adhesion ligand combinations immobilized at the bottom of each well. In particular, the experimental runs in FIG. 7 correspond to rows/columns in FIG. 8, as follows: runs 1-10 in the design in FIG. 7 represent row B, columns 2-11, respectively on the plate layout in FIG. 8; runs 11-20 represent row C, columns 2-11; runs 21-30 represent row D, columns 2-11; runs 31-40 represent row E, columns 2-11; runs 41-50 represent row F, columns 2-11 and runs 51 and 52 represent row G, columns 2 and 3, respectively. As shown by the statistical design in FIG. 7 and the corresponding 96-well plate layout in FIG. 8, it is an embodiment of the present invention that, in addition to mixtures of agents, single agents can be placed in the receptacles. […]

Substance | Effect on cell count, mixture-model analysis (Ln(cell count-10% serum+1) vs. deviation from reference blend, FIG. 12) | Effect on cell count, mixture-model analysis (Ln(cell count-no serum+1) vs. deviation from reference blend, FIG. 11)
poly-L-lysine | diminishes | marginal effect
laminin | positive effect | increase the cell count
